Measurements reported in patent EP4800015A1, “AZABICYCLO DERIVATIVE AND PREPARATION METHOD THEREFOR, AND USE” (Zhejiang Hisun Pharmaceutical Co., Ltd., priority 2023, dated 2025).
pIC50: −log10 of the molar value. Like-named read-outs stand apart in the source and are kept apart here.

Legend:
RL95-2 cells = test: Inhibition of RL95-2 cell proliferation (CellTiter-Glo); type: cell-based; settings: Homo sapiens; RL95-2 cells (MSI-H), 120 hours
Description: The following method was used to determine the effect of the compounds of the present disclosure on RL95-2 cell proliferation. RL95-2 cells (MSI-H cells) were purchased from Cell Resource Center of Shanghai Institutes for Biological Sciences, Chinese Academy of Sciences, and cultured in DMEM/F12 medium (Gibco, catalog No. A4192001) containing 10% fetal bovine serum, 100 U penicillin, and 100 µg/mL streptomycin. Cell viability was determined by CellTiter-Glo® Luminescent Cell Viability Assay kit (Promega, catalog No. G7573).
The experiment was performed according to the steps of the kit manual, which is briefly described as follows: test compounds were first dissolved in DMSO to prepare 10 mM stock solutions, and then diluted with medium to prepare test samples, with final compound concentrations ranging from 10000 nM to 1.52 nM. Cells in logarithmic growth phase were seeded into 96-well cell culture plates at a density of 500 cells per well and cultured overnight at 37 °C in a 5% CO2 incubator, and then test compounds were added and cultivation continued for 120 hours. After the cultivation was completed, 50 µL of CellTiter-Glo detection reagent was added to each well, shaken for 5 minutes, and then left to stand for 10 minutes. Luminescence values of each well were read on a microplate reader using Luminescence mode. The percentage inhibition at each concentration point was calculated by comparison with the control group (0.1% DMSO), and then IC50 values for the compounds for inhibition of cell proliferation were obtained using nonlinear regression analysis of compound concentration logarithm versus inhibition rate in GraphPad Prism 9 software, as shown in Table 3.
The IC50 value results of the compounds of the present disclosure are represented by A, wherein "A" indicates 1 nM < IC50 ≤ 100 nM. Table 3 IC50 data for inhibition of RL95-2 cell proliferation by the compounds of the present disclosure

recombinant human WRN = target: T1, recombinant human WRN (Homo sapiens, UniProt Q14191); test: Inhibition of WRN enzyme activity (ATPase), ADP-Glo Kinase Assay; type: biochemical; settings: WRN protein 5 nM, Flap 0.1 nM, ATP 30 µM
T1 construct: purchased BPS 101264
T1 sequence (Q14191 whole entry): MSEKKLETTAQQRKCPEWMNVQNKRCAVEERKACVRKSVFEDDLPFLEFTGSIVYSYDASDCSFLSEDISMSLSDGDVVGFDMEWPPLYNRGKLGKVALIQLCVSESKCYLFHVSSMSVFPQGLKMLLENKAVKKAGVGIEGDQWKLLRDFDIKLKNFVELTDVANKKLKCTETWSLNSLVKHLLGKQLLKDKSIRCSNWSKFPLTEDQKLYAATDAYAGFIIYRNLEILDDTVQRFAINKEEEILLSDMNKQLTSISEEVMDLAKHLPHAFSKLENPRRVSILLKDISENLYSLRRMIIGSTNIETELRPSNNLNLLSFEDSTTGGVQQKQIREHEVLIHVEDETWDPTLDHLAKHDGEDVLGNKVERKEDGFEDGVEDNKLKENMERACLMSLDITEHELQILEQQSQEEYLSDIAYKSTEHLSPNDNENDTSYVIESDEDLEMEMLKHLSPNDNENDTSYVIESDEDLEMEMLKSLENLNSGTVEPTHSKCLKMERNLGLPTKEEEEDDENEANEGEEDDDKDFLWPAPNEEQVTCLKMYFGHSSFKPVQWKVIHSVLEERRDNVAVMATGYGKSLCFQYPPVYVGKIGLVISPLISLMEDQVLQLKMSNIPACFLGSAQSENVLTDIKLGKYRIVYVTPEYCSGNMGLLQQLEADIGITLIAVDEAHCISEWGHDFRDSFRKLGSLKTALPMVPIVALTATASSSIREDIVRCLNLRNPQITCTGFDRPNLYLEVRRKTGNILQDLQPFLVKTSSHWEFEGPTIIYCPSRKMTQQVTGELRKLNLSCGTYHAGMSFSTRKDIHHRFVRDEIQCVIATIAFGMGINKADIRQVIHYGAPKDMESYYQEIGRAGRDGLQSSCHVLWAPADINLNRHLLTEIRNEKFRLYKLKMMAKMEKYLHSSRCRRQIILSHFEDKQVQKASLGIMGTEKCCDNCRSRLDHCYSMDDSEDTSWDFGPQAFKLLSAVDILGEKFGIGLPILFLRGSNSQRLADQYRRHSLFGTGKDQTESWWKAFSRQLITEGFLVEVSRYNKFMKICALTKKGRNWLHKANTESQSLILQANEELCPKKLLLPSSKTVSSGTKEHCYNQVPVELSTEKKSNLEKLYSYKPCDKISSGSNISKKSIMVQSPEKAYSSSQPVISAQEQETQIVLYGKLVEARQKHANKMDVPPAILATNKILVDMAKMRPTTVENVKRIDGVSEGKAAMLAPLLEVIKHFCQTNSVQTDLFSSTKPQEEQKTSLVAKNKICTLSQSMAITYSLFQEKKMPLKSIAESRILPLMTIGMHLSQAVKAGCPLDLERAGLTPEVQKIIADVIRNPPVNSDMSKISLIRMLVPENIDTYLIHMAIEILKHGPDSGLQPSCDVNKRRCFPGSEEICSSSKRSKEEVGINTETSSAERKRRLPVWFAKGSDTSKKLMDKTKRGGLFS
Method in brief: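 Recombinant human WRN (5 nM) was preincubated with compound (1000–0.004 nM) for 15 min at room temperature. Flap26 5'-flap DNA (0.1 nM) and 30 µM ATP were then added for 10 min in Tris pH 7.5, MgCl2, NaCl, BSA, Pluronic buffer. ADP was detected by ADP-Glo luminescence, and IC50 was obtained by nonlinear regression versus a 0.1% DMSO control.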

Row | pIC50 (recombinant human WRN; read-out: IC50) | Structure (SMILES) | pIC50 (RL95-2 cells) | pIC50 (recombinant human WRN)
1 | 7.00 to 9.00 | CCc1c(N2CCN(C(=O)c3ncnc(C)c3O)CC2)c(=O)n2nc(C3=CCCCCC3)nc2n1CC(=O)Nc1ccc(S(F)(F)(F)(F)F)cc1Cl [Example 70, N-(2-chloro-4-(pentafluoro-λ^6-sulfaneyl)phenyl)-2-(2-(cyclohept-1-en-1-yl)-5-ethyl-6-(4-(5-hydroxy-6-methylpyrimidine-4-carbonyl)piperazin-1-yl)-7-oxo-[1,2,4]triazolo[1,5-a]pyrimidin-4(7H) -yl)acetamide] | 7.00 to 9.00 | 
2 | 7.00 to 9.00 | CCc1c(N2CCN(C(=O)c3ncnc(C)c3O)CC2)c(=O)n2nc(-c3cc4ccccc4n3C)nc2n1CC(=O)Nc1ccc(C(F)(F)F)cc1Cl [Example 74, N-(2-chloro-4-(trifluoromethyl)phenyl)-2-(5-ethyl-6-(4-(5-hydroxy-6-methylpyrimidine-4-carbonyl)piperazin-1-yl)-2-(1-methyl-1H-indol-2-yl)-7-oxo-[1,2,4]triazolo[1,5-a]pyrimidin-4(7H)-yl)ac etamide] | 7.00 to 9.00 | 
3 | > 9.00 | CCc1c(N2CCN(C(=O)c3ncnc(C)c3O)CC2)c(=O)n2nc(-c3cccc4ccoc34)nc2n1CC(=O)Nc1ccc(C(F)(F)F)cc1Cl [Example 69, 2-(2-(benzofuran-7-yl)-5-ethyl-6-(4-(5-hydroxy-6-methylpyrimidine-4-carbonyl)piperazin-1-yl)-7-oxo-[1,2,4]triazolo[1,5-a]pyrimidin-4(7H)-yl)-N-(2-chloro-4-(trifluoromethyl)phenyl)acetamide] | 7.00 to 9.00 | 
4 | 7.00 to 9.00 | CCc1c(N2CCN(C(=O)c3ncnc(C)c3O)CC2)c(=O)n2nc(-c3cc4ccccc4[nH]3)nc2n1CC(=O)Nc1ccc(C(F)(F)F)cc1Cl [Example 73, N-(2-Chloro-4-(trifluoromethyl)phenyl)-2-(5-ethyl-6-(4-(5-hydroxy-6-methylpyrimidine-4-carbonyl)piperazin-1-yl)-2-(1H-indol-2-yl)-7-oxo-[1,2,4]triazolo[1,5-a]pyrimidin-4(7H)-yl)acetamide] | 7.00 to 9.00 | 
5 | 7.00 to 9.00 | CCc1c(N2CCN(C(=O)c3ncnc(C)c3O)CC2)c(=O)n2nc(C3=CCCCOC3)nc2n1CC(=O)Nc1ccc(S(F)(F)(F)(F)F)cc1 [Example 63, 2-(5-ethyl-6-(4-(5-hydroxy-6-methylpyrimidine-4-carbonyl)piperazin-1-yl)-7-oxo-2-(2,5,6,7-tetra hydrooxepin-3-yl)-[1,2,4]triazolo[1,5-a]pyrimidin-4(7H)-yl)-N-(4-(pentafluoro-λ^6-sulfaneyl)phenyl)acetamide] | 7.00 to 9.00 | 
6 | 7.00 to 9.00 | CCc1c(N2CCN(C(=O)c3ncnc(C)c3O)CC2)c(=O)n2nc(-c3ccc4c(c3)CCO4)nc2n1CC(=O)Nc1ccc(SC(F)(F)F)cc1F [Example 89, 2-(2-(2,3-Dihydrobenzofuran-5-yl)-5-ethyl-6-(4-(5-hydroxy-6-methylpyrimidine-4-carbonyl)piperazin-1-yl)-7-oxo-[1,2,4]triazolo[1,5-a]pyrimidin-4(7H)-yl)-N-(2-fluoro-4-((trifluoromethyl)thio)phenyl)acetamide] | 7.00 to 9.00 | 
7 | 7.00 to 9.00 | CCc1c(N2CCN(C(=O)c3ncnc(C)c3O)CC2)c(=O)n2nc(-c3ccc4ccoc4c3)nc2n1CC(=O)Nc1ccc(S(F)(F)(F)(F)F)cc1 [Example 77, 2-(2-(benzofuran-6-yl)-5-ethyl-6-(4-(5-hydroxy-6-methylpyrimidine-4-carbonyl)piperazin-1-yl)-7-oxo-[1,2,4]triazolo[1,5-a]pyrimidin-4(7H)-yl)-N-(4-(pentafluoro-λ^6-sulfaneyl)phenyl)acetamide] | 7.00 to 9.00 | 
8 | > 9.00 | CCc1c(N2CCN(C(=O)c3ncnc(C)c3O)CC2)c(=O)n2nc(C3=CC4CC4C3)nc2n1CC(=O)Nc1ccc(S(F)(F)(F)(F)F)cc1 (centres unmarked) [Example 66, 2-(2-(Bicyclo[3.1.0]hex-2-en-3-yl)-5-ethyl-6-(4-(5-hydroxy-6-methylpyrimidine-4-carbonyl)piperazin-1-yl)-7-oxo-[1,2,4]triazolo[1,5-a]pyrimidin-4(7H)-yl)-N-(4-(pentafluoro-λ^6-thiol)phenyl)acetamide] | 7.00 to 9.00 | 
9 | 7.00 to 9.00 | Cc1ncnc(C(=O)N2CCN(c3c(C4CC4)n(CC(=O)Nc4ccc(C(F)(F)F)cc4Cl)c4nc(-c5ccc6c(c5)CCO6)nn4c3=O)CC2)c1O [Example 152, N-(2-chloro-4-(trifluoromethyl)phenyl)-2-(5-cyclopropyl-2-(2,3-dihydrobenzofuran-5-yl)-6-(4-(5-hydroxy-6-methylpyrimidine-4-carbonyl)piperazin-1-yl)-7-oxo-[1,2,4]triazolo[1,5-a]pyrimidin-4 (7H)-yl)acetamide] | 7.00 to 9.00 | 
10 | 7.00 to 9.00 | CCc1c(N2CCN(C(=O)c3ncnc(C)c3O)CC2)c(=O)n2nc(C3=CCC4(CC3)COC4)nc2n1CC(=O)Nc1ccc(C(F)(F)F)cc1Cl [Example 65, N-(2-chloro-4-(trifluoromethyl)phenyl)-2-(5-ethyl-6-(4-(5-hydroxy-6-methylpyrimidine-4-carbonyl)piperazin-1-yl)-7-oxo-2-(2-oxaspiro[3.5]non-6-en-7-yl)-[1,2,4]triazolo[1,5-a]pyrimidin-4(7H)-yl)acetamide] | 7.00 to 9.00 | 
11 | > 9.00 | CCc1c(N2CCN(C(=O)c3ncccc3O)CC2)c(=O)n2nc(C3=CC4CC(=O)CC4C3)nc2n1CC(=O)Nc1ccc(S(F)(F)(F)(F)F)cc1 (centres unmarked) [Example 71, 2-(5-ethyl-6-(4-(3-hydroxypicolinoyl)piperazin-1-yl)-7-oxo-2-(5-oxo-1,3a,4,5,6,6a-hexahydropentalen-2-yl)-[1,2,4]triazolo[1,5-a]pyrimidin-4(7H)-yl)-N-(4-(pentafluoro-λ^6-sulfaneyl)phenyl)acetamide] | 7.00 to 9.00 | 
12 | 7.00 to 9.00 | CCc1c(N2CCN(C(=O)c3ncnc(C)c3O)CC2)c(=O)n2nc(C3=CCCCOC3)nc2n1CC(=O)Nc1ccc(C(F)(F)F)cc1Cl [Example 62, N-(2-chloro-4-(trifluoromethyl)phenyl)-2-(5-ethyl-6-(4-(5-hydroxy-6-methylpyrimidine-4-carbonyl)piperazin-1-yl)-7-oxo-2-(2,5,6,7-tetrahydrooxepin-3-yl)-[1,2,4]triazolo[1,5-a]pyrimidin-4(7H) -yl)acetamide] | 7.00 to 9.00 | 
13 | 7.00 to 9.00 | CCc1c(N2CCN(C(=O)c3ncnc(C)c3O)CC2)c(=O)n2nc(-c3ccc4ncnn4c3)nc2n1CC(=O)Nc1ccc(C(F)(F)F)cc1Cl [Example 135, 2-(2-([1,2,4]triazolo[1,5-a]pyridin-6-yl)-5-ethyl-6-(4-(5-hydroxy-6-methylpyrimidine-4-carbonyl)piperazin-1-yl)-7-oxo-[1,2,4]triazolo[1,5-a]pyrimidin-4(7H)-yl)-N-(2-chloro-4-(trifluoromethyl)phenyl)acetamide] |  | 
14 | 7.00 to 9.00 | CCc1c(N2CCN(C(=O)c3ncnc(C)c3O)CC2)c(=O)n2nc(-c3ccc4c(c3)CCO4)nc2n1CC(=O)Nc1ccc(SC(F)F)cc1Cl [Example 148, N-(2-chloro-4-((difluoromethyl)thio)phenyl)-2-(2-(2,3-dihydrobenzofuran-5-yl)-5-ethyl-6-(4-(5-hydroxy-6-methylpyrimidine-4-carbonyl)piperazin-1-yl)-7-oxo-[1,2,4]triazolo[1,5-a]pyrimidin-4(7 H)-yl)acetamide] |  | 
15 |  | CCc1c(N2CCN(C(=O)c3ncnc(C)c3O)CC2)c(=O)n2nc(-c3ccc4nc[nH]c4c3)nc2n1CC(=O)Nc1ccc(C(F)(F)F)cc1Cl [Example 138, 2-(2-(1H-benzo[d]imidazol-6-yl)-5-ethyl-6-(4-(5-hydroxy-6-methylpyrimidine-4-carbonyl)piperazin-1-yl)-7-oxo-[1,2,4]triazolo[1,5-a]pyrimidin-4(7H)-yl)-N-(2-chloro-4-(trifluoromethyl)phenyl) acetamide] |  | 7.00 to 9.00
16 |  | CCc1c(N2CCN(C(=O)c3ncccc3O)CC2)c(=O)n2nc(C3=CC4COCC4C3)nc2n1CC(=O)Nc1ccc(S(F)(F)(F)(F)F)cc1 (centres unmarked) [Example 187, 2-(5-ethyl-6-(4-(3-hydroxypicolinoyl)piperazin-1-yl)-7-oxo-2-(3,3a,4,6a-tetrahydro-1H-cyclopenta[c]furan-5-yl)-[1,2,4]triazolo[1,5-a]pyrimidin-4(7H)-yl)-N-(4-(pentafluoro-λ^6-sulfaneyl)phenyl) acetamide] |  | 7.00 to 9.00
17 | 7.00 to 9.00 | CCc1c(N2CCN(C(=O)c3ncnc(C)c3O)CC2)c(=O)n2nc(-c3cnc4[nH]ncc4c3)nc2n1CC(=O)Nc1ccc(C(F)(F)F)cc1Cl [Example 114, N-(2-chloro-4-(trifluoromethyl)phenyl)-2-(5-ethyl-6-(4-(5-hydroxy-6-methylpyrimidine-4-carbonyl)piperazin-1-yl)-7-oxo-2-(1H-pyrazolo[3,4-b]pyridin-5-yl)-[1,2,4]triazolo[1,5-a]pyrimidin-4(7 H)-yl)acetamide] |  | 
